Where a SMILES comes first, the peptide text is derived from it.
Molecular target: T1, recombinant human E-selectin (Homo sapiens, UniProt P16581)
T1 sequence (P16581 22-556 limits assumed): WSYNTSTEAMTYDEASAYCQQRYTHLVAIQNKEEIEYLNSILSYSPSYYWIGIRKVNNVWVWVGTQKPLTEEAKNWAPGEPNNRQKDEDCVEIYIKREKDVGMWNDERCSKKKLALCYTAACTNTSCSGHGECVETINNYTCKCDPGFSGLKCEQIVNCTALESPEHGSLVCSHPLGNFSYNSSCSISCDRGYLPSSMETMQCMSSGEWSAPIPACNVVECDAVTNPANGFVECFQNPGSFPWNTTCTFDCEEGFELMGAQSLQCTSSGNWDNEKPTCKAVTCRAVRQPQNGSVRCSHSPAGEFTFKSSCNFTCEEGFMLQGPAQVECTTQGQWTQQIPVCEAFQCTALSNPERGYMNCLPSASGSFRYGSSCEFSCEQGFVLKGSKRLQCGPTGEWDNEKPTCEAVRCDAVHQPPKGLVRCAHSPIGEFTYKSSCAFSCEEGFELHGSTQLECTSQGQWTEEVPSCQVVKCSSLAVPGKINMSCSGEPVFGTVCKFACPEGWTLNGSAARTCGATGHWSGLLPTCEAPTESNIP
Assay: Surface plasmon resonance
Assay type: binding
Details: SPR, peptide M versus peptide K

CC[C@H](C)[C@H](NC(=O)[C@H](CC(=O)O)NC(=O)[C@H](CO)NC(=O)CNC(=O)[C@@H](N)CS)C(=O)N[C@H](C(=O)N[C@@H](Cc1c[nH]c2ccccc12)C(=O)N[C@@H](CC(=O)O)C(=O)N[C@@H](CCC(N)=O)C(=O)N[C@@H](CC(C)C)C(=O)N[C@@H](Cc1c[nH]c2ccccc12)C(=O)N[C@@H](CC(=O)O)C(=O)N[C@@H](CC(C)C)C(=O)N[C@@H](CCSC)C(=O)O)[C@@H](C)O [Peptide M, CGSDITWDQLWDLM] (H-CGSDITWDQLWDLM-OH)
koff relative to peptide K (times faster): 10 times

From paper PMC3366278 (Biomaterials, 2012)
